Each structure is given as a SMILES string. Active and inactive are the calls of the source. The rule behind the calls is not given here.

A short description of series [1]: Induction of type-1 ROS generation in PBS assessed as increase in superoxide anion radical by measuring increase in DHR123 fluorescence intensity at 10 uM irradiated with 450 to 800 nm 40.8 mW cm^-2 light up to 10 mins by DHR123 fluorescence based analysis. It is filed as functional.
Series [2] can be described thus: Induction of type-II ROS generation in PBS assessed as increase in singlet oxygen by measuring ABDA absorption at 20 uM irradiated with 450 to 800 nm 40.8 mW cm^-2 light up to 10 mins by ABDA based UV-vis absorption spectrophotometric analysis. The class given is functional.
Series [3] has as its system HeLa. The series is described as follows: Cytotoxicity against human HeLa cells up to 100 uM incubated for 4 hrs by MTT assay. It is filed as toxicity, cell-based. On the technique in general: Tetrazolium dyes change colour on reduction, which living cells bring about.
The test system of series [4] is HeLa. The series is described as follows: Upregulation of ROS generation related proteins in human HeLa cells under white light irradiation exposure by GO analysis. It is filed as functional, cell-based.
The test system of series [5] is HeLa. The series is described as follows: Photocytotoxicity against human HeLa cells at 10 uM incubated with compound for 30 mins under 365 nm UV light for 1 mins followed white LED exposure for 2 mins and measured after 20 hrs post-illumination by MTT assay. The class given is functional, cell-based. To be noted: time 20.55 hrs.
In series [6] the test system is HeLa. The series is described as follows: Upregulation of cellular redox metabolism related proteins in human HeLa cells under white light irradiation exposure by GO analysis. The class given is functional, cell-based.
Series [7] in a line: Induction of type-II ROS generation in PBS assessed as increase in singlet oxygen by measuring ABDA absorption under white lamp exposure for 10 mins and UV light for 15 mins followed by white lamp exposure for another 10 mins by ABDA based UV-vis absorption spectrophotometric analysis. The class given is functional. To be noted: time 35.0 min.
Series [8] can be described thus: Induction of type-1 ROS generation in PBS assessed as increase in superoxide anion radical by measuring increase in DHR123 fluorescence intensity under white lamp exposure for 10 mins and UV light for 15 mins followed by white lamp exposure for another 10 mins by DHR123 fluorescence based analysis. The class given is functional. Conditions: time 35.0 min.
The test system of series [9] is HeLa. The series is described as follows: Photocytotoxicity against human HeLa cells at 10 uM incubated with compound for 30 mins under 365 nm UV light for 5 mins followed white LED exposure for 10 mins and measured after 20 hrs post-illumination by MTT assay. Conditions: time 20.75 hrs. The class given is functional, cell-based.
For series [10], the system named is HeLa. The series is described as follows: Photocytotoxicity in human HeLa cells at 10 uM incubated for 30 mins irradiated with 450 to 800 nm 40.8 mW cm^-2 white LED light and measured after 20 hrs by MTT assay. The class given is functional, cell-based. Conditions: time 20.5 hrs.
Series [11] is described as follows: Phototoxicity in human HeLa cells assessed as cell viability under white LED light for 10 mins. It is filed as functional, cell-based. Conditions: light or radiation study.
In series [12] the test system is HeLa. The series is described as follows: Photocytotoxicity against human HeLa cells at 10 uM incubated with compound for 30 mins under 365 nm UV light for 1 mins and measured after 20 hrs post-illumination by MTT assay. The class given is functional, cell-based. To be noted: time 20.51 hrs.

In the case of `CC1=CC(C)=[N+]2C1=C(c1ccccc1)c1c(C)c(/C=[N+]3\N=C(c4ccc([N+](=O)[O-])cc4)O[B-]3(F)F)c(C)n1[B-]2(F)F`, the result in series [1] was Active. Further, the values for the Activity result (in [2]; in the series with HeLa [3]) were “Not active; Slight Changes In Abda Absorption Observed” and “Non-toxic”, respectively.

Consider `COc1ccc(C2=N/[N+](=C\c3c(C)c4n(c3C)[B-](F)(F)[N+]3=C(C)C(I)=C(C)C3=C4c3ccccc3)[B-](F)(F)O2)cc1`, for which the result (in the series with HeLa [4]; in the series with HeLa [5]; in [1]; in the series with HeLa [6]) was Active.

For the compound `COc1ccc(C2=N/[N+](=C/c3c(C)c4n(c3C)[B-](F)(F)[N+]3=C(C)C=C(C)C3=C4c3ccccc3)[B-](F)(F)O2)cc1`, the result (in [7]; in series [8]; in the series on HeLa [9]) was Active.

Turning to `COc1ccc(C2=N/[N+](=C\c3c(C)c4n(c3C)[B-](F)(F)[N+]3=C(C)C=C(C)C3=C4c3ccccc3)[B-](F)(F)O2)cc1`, the result (in the series on HeLa [10]; in series [1]) was Active. The Activity result in series [2] was “Not active; Slight Changes In Abda Absorption Observed”; in the series on HeLa [3] it was “Non-toxic”.

Consider `CC1=CC(C)=[N+]2C1=C(c1ccccc1)c1c(C)c(/C=[N+]3/N=C(c4ccccc4)O[B-]3(F)F)c(C)n1[B-]2(F)F`, for which the outcome (in series [7]; in [8]; with HeLa [9]) was Active.

In the case of `COc1ccc(C2=N/[N+](=C\C3=C(C)C4=C(c5ccccc5)c5c(C)c(/C=[N+]6\N=C(c7ccc(OC)cc7)O[B-]6(F)F)c(C)n5[B-](F)(F)[N+]4=C3C)[B-](F)(F)O2)cc1`, the outcome in the series with HeLa [9] was Active. For the same compound, the Activity entry in the series with HeLa [3] is listed as “Non-toxic”.

As to `CC1=CC(C)=[N+]2C1=C(c1ccccc1)c1c(C)c(/C=[N+]3/N=C(c4ccc([N+](=O)[O-])cc4)O[B-]3(F)F)c(C)n1[B-]2(F)F`, the result in the series with HeLa [9] was Active.

Consider `CC1=C(I)C(C)=[N+]2C1=C(c1ccccc1)c1c(C)c(/C=[N+]3\N=C(c4ccccc4)O[B-]3(F)F)c(C)n1[B-]2(F)F`, for which the IC50 in [11] came out at 3.38 µM. The outcome (in the series on HeLa [12]; in [1]; in [2]) was Active.

Take `CC1=C(/C=[N+]2\N=C(c3ccccc3)O[B-]2(F)F)C(C)=[N+]2C1=C(c1ccccc1)c1c(C)c(/C=[N+]3\N=C(c4ccccc4)O[B-]3(F)F)c(C)n1[B-]2(F)F`: the result (in series [1]; with HeLa [9]) was Active. Also, in the series with HeLa [3], the Activity result is listed as “Non-toxic”.

Take `CC1=C(I)C(C)=[N+]2C1=C(c1ccccc1)c1c(C)c(/C=[N+]3\N=C(c4ccc([N+](=O)[O-])cc4)O[B-]3(F)F)c(C)n1[B-]2(F)F`: in [1], the outcome was Active.

In the case of `CC1=CC(C)=[N+]2C1=C(c1ccccc1)c1c(C)c(/C=[N+]3\N=C(c4ccccc4)O[B-]3(F)F)c(C)n1[B-]2(F)F`, the outcome (in the series on HeLa [10]; in series [1]) was Active. Moreover, the values for the Activity entry (in series [2]; with HeLa [3]) were “Not active; Slight Changes In Abda Absorption Observed” and “Non-toxic”, respectively.

As a reminder, the IC50 is the concentration at which inhibition is half-maximal.

The values are drawn from ChEMBL document CHEMBL6177945, “Dyad System of BOAHY-BODIPY Conjugates as Novel Photoswitchable Photosensitizers for Photodynamic Therapy” (J Med Chem, 2025).
